The values below come from patent publication US20020015943A1, “Assays, methods and means relating to the modulation of levels of nuclear beta-catenin” (priority 2000, published 2002).

“Also recorded” adds a separate entry of the source.

Test [1] deals with nuclear β-catenin in SW480 cells. The test can be described thus: Complementation assay in transfected SW480 cells, immunofluorescence of APC construct and β-catenin. In kind it is cell-based. From the text: All constructs were inserted into pEGFP-C2 (Clontech), producing N-terminally tagged GFP fusions. Each construct (except HC and HCala, see below) also contains a triple hemagglutinin (HA) tag inserted between GFP and APC coding sequence. In coreNES, the following NES-encoding sequences were inserted between the HA tag and the ARDcore (first of a pair human, second Drosophila, bold NES residues were substituted to alanine in coreNESala; in coreNEScon, underlined conserved non-NES residues were substituted by alanine): 203, […], […]; 20R4, […], […]; 20R7, […]. coreNESmin from Drosophila 20R4 contains ISGLSHLTVGSA (bold residues substituted by alanine in the mutant version). We also fused the putative NES from Drosophila pseudoR20 (FIG. 1, arrowhead) to ARDcore, but this NES candidate ([…]) was non-functional. For the complementation assays in SW480 cells, a central fragment from human APC (codons 1379-2080) was N-terminally tagged with GFP (HC, see above). The above described alanine substitutions of 20R-linked NESs were introduced into HC, and into GFP-E-APC, using the Quik-Change Site-Directed Mutagenesis Kit (Stratagene), HCala1 and HCala2 are partial mutants retaining one and two NESs, respectively (see text) All constructs were verified by sequencing.
Monkey COS cells were grown in DMEM medium (supplemented with 10% fetal calf serum), and transfected with FuGENE™ (Morin, P. J. et al. Science 275, 1787-1790 (1997)) Transfection Reagent (Roche). SW480 and HCT116 cells were grown in Leibovitz's L15 medium (with 10% fetal calf serum), and transfected with Lipofectamine (Life Technologies Inc.). 0.4 or […] DNA was used per transfection of COS or SW480 cells (in 35 mm culture wells), respectively. Transfected cells were harvested for analysis after 24-48 hours. […]
(§1) Qualitative analysis was thus backed up by quantitative evaluation of 10-20 randomly chosen fields in which each individual healthy cell was scored. Ratios of nuclear to cytoplasmic fluorescence levels were determined.

The target of test [2] is T1, nuclear export receptor CRM1 (Drosophila melanogaster, UniProt Q9TVM2).
T1 construct: 0-6 hours old embryos were permeabilised in octane; from tissue; host or cells: octane-permeabilised Drosophila embryos, 0-6 hours old
The experiment in a line: Endogenous E-APC localisation in LMB-treated permeabilised Drosophila embryos. In kind it is cell-based. Particulars: 80 ng/ml LMB 60 min. The protocol:
Drosophila embryos were fixed and stained as described (Yu, X. et al. Nature Cell Biol 3, 144-151 (1999)). For drug treatments, 0-6 hours old embryos were permeabilised in octane (Lantz, V. A. et al. Mech Dev 85, 111-122 (1999)) and subsequently incubated for 60 min. with 80 ng/ml LMB. Controls were octane-permeabilised and incubated in solvent alone (<1% ethanol).
The following antibodies were used: rabbit anti-E-APC (1:10′000) (Yu, X. et al. Nature Cell Biol 3, 144-151 (1999), rabbit anti-APC (1:700) (Näthke, I. S. et al. J Cell Biol 134, 165-179 (1996)), mouse anti-lamin (1:150), mouse anti-β-catenin (1:500; Transduction Laboratories), Alexa Red and Green (1:500; Molecular Probes). images were collected on an MRC 1024 confocal microscope.

The subject of test [3] is nuclear export receptor CRM1. The experiment in a line: Subcellular distribution of GFP-tagged APC constructs in transfected COS cells with or without LMB. The format is cell-based, monkey.
Text: All constructs were inserted into pEGFP-C2 (Clontech), producing N-terminally tagged GFP fusions. Each construct (except HC and HCala, see below) also contains a triple hemagglutinin (HA) tag inserted between GFP and APC coding sequence. In coreNES, the following NES-encoding sequences were inserted between the HA tag and the ARDcore (first of a pair human, second Drosophila, bold NES residues were substituted to alanine in coreNESala; in coreNEScon, underlined conserved non-NES residues were substituted by alanine): 203, […], […]; 20R4, […], […]; 20R7, […]. coreNESmin from Drosophila 20R4 contains […] (bold residues substituted by alanine in the mutant version). […] For the complementation assays in SW480 cells, a central fragment from human APC (codons 1379-2080) was N-terminally tagged with GFP (HC, see above). The above described alanine substitutions of 20R-linked NESs were introduced into HC, and into GFP-E-APC, using the Quik-Change Site-Directed Mutagenesis Kit (Stratagene), HCala1 and HCala2 are partial mutants retaining one and two NESs, respectively (see text) All constructs were verified by sequencing.
Monkey COS cells were grown in DMEM medium (supplemented with 10% fetal calf serum), and transfected with FuGENE™ (Morin, P. J. et al. Science 275, 1787-1790 (1997)) Transfection Reagent (Roche). SW480 and HCT116 cells were grown in Leibovitz's L15 medium (with 10% fetal calf serum), and transfected with Lipofectamine (Life Technologies Inc.). 0.4 or […] DNA was used per transfection of COS or SW480 cells (in 35 mm culture wells), respectively. Transfected cells were harvested for analysis after 24-48 hours. For staining, cells were either fixed with chilled methanol for 10 min. at −20° C. or fixed with 4% paraformaldehyde (freshly prepared, in phosphate buffered saline) for 30 min. Cells were then permeabilised with 0.1% Triton X-100 and blocked with bovine serum albumin for 15 min. each, and subsequently incubated at room temperature with primary and secondary antibody for 60 and 30 min, respectively. COS cells were treated with LMB (50 ng/ml)) for 1-2 hours 24 hours after transfection, SW480 cells for 2 hours 48 hours after transfection.
as §1

The subject of test [4] is nuclear β-catenin. The test can be described thus: TOPFLASH/FOPFLASH luciferase transcriptional read-out of nuclear β-catenin in SW480 cells. In kind it is cell-based. The settings on record: TOPFLASH, versus mock-transfected. The protocol:
pTOPFLASH and pFOPFLASH were used for transcriptional read-out assays of nuclear β-catenin in SW480 cells (Korinek, V. et al. Science 275, 1784-1787 (1997)). pRL-CMV served as an internal control, and luciferase assays were performed with the Dual Luciferase™ Reporter Assay System (Promega). Relative luciferase activities (x100) were obtained by dividing TOP- or FOP-FLASH values by pRL-CMV values (FIG. 3). TOP-FLASH values reflect averages of 2-4 independent transfections, their standard deviations are given.

Where [5] appears, read: HC-transfected SW480 cells, LMB 2 hours.

T1 sequence (Q9TVM2 whole entry): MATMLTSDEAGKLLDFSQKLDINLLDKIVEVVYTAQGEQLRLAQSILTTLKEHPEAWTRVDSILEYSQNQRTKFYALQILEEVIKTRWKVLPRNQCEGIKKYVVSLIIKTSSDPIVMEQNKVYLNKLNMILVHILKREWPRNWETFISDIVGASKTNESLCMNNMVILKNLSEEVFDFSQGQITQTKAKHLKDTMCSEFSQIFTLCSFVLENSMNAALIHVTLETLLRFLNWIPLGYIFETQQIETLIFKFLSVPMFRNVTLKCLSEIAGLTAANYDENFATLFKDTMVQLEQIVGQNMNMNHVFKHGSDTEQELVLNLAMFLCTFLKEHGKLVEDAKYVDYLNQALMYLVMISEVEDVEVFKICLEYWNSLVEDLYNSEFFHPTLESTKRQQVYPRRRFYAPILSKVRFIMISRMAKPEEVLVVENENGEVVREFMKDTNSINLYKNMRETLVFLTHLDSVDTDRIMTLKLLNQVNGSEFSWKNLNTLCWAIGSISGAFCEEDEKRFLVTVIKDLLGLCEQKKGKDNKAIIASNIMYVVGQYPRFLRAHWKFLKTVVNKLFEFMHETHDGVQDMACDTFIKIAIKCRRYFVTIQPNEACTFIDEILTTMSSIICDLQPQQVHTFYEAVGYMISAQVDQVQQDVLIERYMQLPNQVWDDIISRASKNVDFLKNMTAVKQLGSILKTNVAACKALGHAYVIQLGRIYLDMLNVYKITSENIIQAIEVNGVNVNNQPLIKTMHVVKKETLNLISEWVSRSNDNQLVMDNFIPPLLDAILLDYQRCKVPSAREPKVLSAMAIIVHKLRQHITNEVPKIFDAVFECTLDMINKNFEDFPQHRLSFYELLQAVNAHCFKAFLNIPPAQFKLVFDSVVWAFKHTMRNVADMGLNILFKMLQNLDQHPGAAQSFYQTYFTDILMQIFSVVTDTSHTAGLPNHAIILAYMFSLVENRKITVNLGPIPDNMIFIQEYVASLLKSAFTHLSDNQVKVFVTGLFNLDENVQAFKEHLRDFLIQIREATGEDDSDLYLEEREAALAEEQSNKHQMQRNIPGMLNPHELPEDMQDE

Turning to `CCC(=C/[C@H](C)C/C=C/C(C)=C/[C@@H](C)C(=O)[C@@H](C)[C@H](O)[C@@H](C)C/C(C)=C/C(=O)O)/C=C/[C@@H]1OC(=O)C=C[C@@H]1C` [LMB, leptomycin B], in test [1] (setting [5]), the “effect on localisation of HC” value was “caused nuclear retention of HC” and the “effect on reduction of nuclear β-catenin by HC” value is recorded as “attenuated the reduction of nuclear β-catenin by HC”. In addition, the “effect on localisation of endogenous E-APC” value in test [2] was “E-APC was found to accumulate in the nuclei; also recorded: endogenous E-APC is retained efficiently in nuclei”. In test [3] (LMB 50 ng/ml 1-2 hours), the “effect on nuclear exclusion / distribution of Cterm1 and Cterm2” value is “blocked; also recorded: even distribution of Cterm1 and 2 throughout cytoplasm and nucleus”; the “effect on nuclear exclusion of coreNES fusions” value is “abolishes the nuclear exclusion of all coreNES fusions”; the “effect on subcellular distribution of ARDcore and coreNESala mutants” value is “neither affected”. For the same molecule, in test [3] (LMB treatment (not shown)), the “effect on distribution of full-length E-APC” value is reported as “accumulated to some extent in the nucleus”.

B1: HC: central fragment from human APC (codons 1379-2080) N-terminally tagged with GFP, expressed by transfection (protein, UniProt P25054 1379-2080, looked up, fragment)
chain: ETPLMFSRCTSVSSLDSFESRSIASSVQSEPCSGMVSGIISPSDLPDSPGQTMPPSRSKTPPPPPQTAQTKREVPKNKAPTAEKRESGPKQAAVNAAVQRVQVLPDADTLLHFATESTPDGFSCSSSLSALSLDEPFIQKDVELRIMPPVQENDNGNETESEQPKESNENQEKEAEKTIDSEKDLLDDSDDDDIEILEECIISAMPTKSSRKAKKPAQTASKLPPPVARKPSQLPVYKLLPSQNRLQPQKHVSFTPGDDMPRVYCVEGTPINFSTATSLSDLTIESPPNELAAGEGVRGGAQSGEFEKRDTIPTEGRSTDEAQGGKTSSVTIPELDDNKAEEGDILAECINSAMPKGKSHKPFRVKKIMDQVQQASASSSAPNKNQLDGKKKKPTSPVKPIPQNTEYRTRVRKNADSKNNLNAERVFSDNKDSKKQNLKNNSKVFNDKLPNNEDRVRGSFAFDSPHHYTPIEGTPYCFSRNDSLSSLDFDDDDVDLSREKAELRKAKENKESEAKVTSHTELTSNQQSANKTQAIAKQPINRGQPKPILQKQSTFPQSSKDIPDRGAATDEKLQNFAIENTPVCFSHNSSLSSLSDIDQENNNKENEPIKETEPPDSQGEPSKPQASGYAPKSFHVEDTPVCFSRNSSLSSLSIDSEDDLLQECISSAMPKKKKPSRLKGDNEKHSPRNMGGILGEDLTLDL
modifications: N-terminal GFP tag
notes: central fragment from human APC (codons 1379-2080) N-terminally tagged with GFP, expressed by transfection
For the molecule B1, the “reduction of luciferase activity (transcriptional activity of nuclear β-catenin)” value in test [4] is “much reduced”. In addition, the “reduction of nuclear β-catenin by transfected construct” value in test [1] (transfected SW480 cells, immunofluorescence) is “strongly reduced nuclear β-catenin”.
